Results from patent US10246429B2, “Vinyl fluoride cyclopropyl fused thiazin-2-amine compounds as beta-secretase inhibitors and methods of use” (AMGEN INC., priority 2015, dated 2019).

Key:
[1] = biological target: T1, BACE1 (Homo sapiens (Human), UniProt P56817); assay: In vitro enzymatic BACE1 FRET assay; assay type: biochemical; conditions: read-out: IC50 IP (μM) BACE1 Enzyme
Target sequence in this assay (P56817 46-501): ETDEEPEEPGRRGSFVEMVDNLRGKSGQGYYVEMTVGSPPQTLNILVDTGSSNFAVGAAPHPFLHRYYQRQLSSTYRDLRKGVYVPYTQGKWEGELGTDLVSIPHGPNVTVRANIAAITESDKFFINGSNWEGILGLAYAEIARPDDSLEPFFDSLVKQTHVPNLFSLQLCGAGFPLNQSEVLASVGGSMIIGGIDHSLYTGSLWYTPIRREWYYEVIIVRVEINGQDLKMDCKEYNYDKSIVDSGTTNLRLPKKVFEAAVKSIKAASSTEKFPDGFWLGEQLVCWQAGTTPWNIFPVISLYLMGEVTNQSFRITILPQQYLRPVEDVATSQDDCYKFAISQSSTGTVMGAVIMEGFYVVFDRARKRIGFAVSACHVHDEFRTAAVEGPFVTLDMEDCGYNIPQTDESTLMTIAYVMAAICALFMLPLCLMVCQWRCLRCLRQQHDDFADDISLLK
Source text: (§1) In Vitro Enzymatic BACE1 and BACE2 FRET (Fluorescence Resonance Energy Transfer) Assays (Enzyme Assay Data in Table 1)

[2] = biological target: T1, BACE1; assay: BACE1 cell assay; assay type: cell-based
Target sequence in this assay (P56817 46-501, species assumed): as the sequence (P56817 46-501) above

[3] = biological target: Cathepsin D (CatD) (Homo sapiens (Human), UniProt P07339); assay: CatD assay; assay type: biochemical; conditions: read-out: IC50 IP (μM) CatD
Cathepsin D (CatD), sequence (P07339 65-412, species assumed): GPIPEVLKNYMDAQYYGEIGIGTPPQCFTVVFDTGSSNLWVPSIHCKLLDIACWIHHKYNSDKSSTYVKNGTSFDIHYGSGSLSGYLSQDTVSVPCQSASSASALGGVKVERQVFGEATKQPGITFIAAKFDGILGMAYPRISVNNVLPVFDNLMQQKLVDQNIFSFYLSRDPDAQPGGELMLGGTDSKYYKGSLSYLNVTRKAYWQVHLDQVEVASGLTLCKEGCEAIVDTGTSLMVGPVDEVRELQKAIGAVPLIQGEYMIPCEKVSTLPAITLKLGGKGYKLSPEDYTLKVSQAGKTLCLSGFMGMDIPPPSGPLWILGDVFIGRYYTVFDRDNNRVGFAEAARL

[4] = biological target: BACE2 (Homo sapiens (Human), UniProt Q9Y5Z0); assay: In vitro enzymatic BACE2 FRET assay; assay type: biochemical; conditions: read-out: IC50 IP (μM) BACE2 Enzyme
BACE2, sequence (Q9Y5Z0 63-518): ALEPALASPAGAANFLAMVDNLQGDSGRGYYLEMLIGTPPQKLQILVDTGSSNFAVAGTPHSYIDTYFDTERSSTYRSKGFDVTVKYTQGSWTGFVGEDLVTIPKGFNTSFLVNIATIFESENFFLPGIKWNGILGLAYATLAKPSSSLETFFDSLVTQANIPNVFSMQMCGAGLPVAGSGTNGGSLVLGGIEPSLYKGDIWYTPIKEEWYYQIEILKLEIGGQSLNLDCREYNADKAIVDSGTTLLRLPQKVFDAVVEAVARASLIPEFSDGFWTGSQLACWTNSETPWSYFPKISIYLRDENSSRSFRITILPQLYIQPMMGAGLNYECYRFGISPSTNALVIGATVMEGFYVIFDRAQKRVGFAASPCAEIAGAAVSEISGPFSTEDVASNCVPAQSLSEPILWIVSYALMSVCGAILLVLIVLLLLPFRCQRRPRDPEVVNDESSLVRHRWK
Source text: as §1

[5] = read-out: IC50 IP (μM) BACE1 Cell

| Structure (SMILES) | IC50 [1] [µM] | IC50 [2, 5] [µM] | IC50 [3] [µM] | IC50 [4] [µM] | IC50 [2] [µM] |
| --- | --- | --- | --- | --- | --- |
| COC(=O)[C@H]1CCCN1C(=O)[C@]12C[C@H]1[C@@](C)(c1cc(/C=C(\F)c3ccc(C#N)cn3)ccc1F)N=C(N)S2 [Example 130, (R)-methyl 1-((1S,5S,6S)-3-amino-5-(5-((Z)-2-(5-cyanopyridin-2-yl)-2-fluorovinyl)-2-fluorophenyl)-5-methyl-2-thia-4-azabicyclo[4.1.0]hept-3-ene-1-carbonyl)pyrrolidine-2-carboxylate bis(2,2,2-trifluoroacetate)] | 0.0034 | 0.00747 | 120 | 0.121 | – |
| CNC(=O)[C@]12C[C@H]1[C@@](C)(c1cc(/C=C(\F)c3ccc(C#CC4(C)COC4)cn3)ccc1F)N=C(N)S2 [Example 360, (1S,5S,6S)-3-amino-5-(2-fluoro-5-((Z)-2-fluoro-2-(5-((3-methyloxetan-3-yl)ethynyl)pyridin-2-yl)vinyl)phenyl)-N,5-dimethyl-2-thia-4-azabicyclo[4.1.0]hept-3-ene-1-carboxamide] | 0.15 | 0.636 | 72.5 | 0.756 | – |
| CN(C)C(=O)[C@]12C[C@H]1[C@@](C)(c1cc(/C=C(\F)c3cnc(OCC(F)(F)C(F)F)cn3)cnc1F)N=C(N)S2 [Example 291, (1S,5S,6S)-3-amino-5-(2-fluoro-5-((Z)-2-fluoro-2-(5-(2,2,3,3-tetrafluoropropoxy)pyrazin-2-yl)vinyl)pyridin-3-yl)-N,N,5-trimethyl-2-thia-4-azabicyclo[4.1.0]hept-3-ene-1-carboxamide] | 0.0406 | – | 290 | 0.106 | 0.326 |
| C#CCOc1cnc(/C(F)=C/c2ccc(F)c([C@@]3(C)N=C(N)S[C@@]4(S(C)(=O)=O)C[C@H]43)c2)cn1 [Example 227, (1R,5S,6S)-5-(2-fluoro-5-((Z)-2-fluoro-2-(5-(prop-2-yn-1-yloxy)pyrazin-2-yl)vinyl)phenyl)-5-methyl-1-(methylsulfonyl)-2-thia-4-azabicyclo[4.1.0]hept-3-en-3-amine] | 0.0006 | – | 55.1 | 0.058 | 0.0105 |
| COc1ccc(/C(F)=C/c2ccc(F)c([C@@]3(C)N=C(N)S[C@@]4(C(=O)N5CCCC5)C[C@H]43)c2)nc1 [Example 104, ((1S,5S,6S)-3-amino-5-(2-fluoro-5-((Z)-2-fluoro-2-(5-methoxypyridin-2-yl)vinyl)phenyl)-5-methyl-2-thia-4-azabicyclo[4.1.0]hept-3-en-1-yl)(pyrrolidin-1-yl)methanone] | 0.0226 | 0.0221 | 185 | 0.144 | – |
| CC(C)[C@@H]1CN(C(=O)[C@]23C[C@H]2[C@@](C)(c2cc(/C=C(\F)c4ccc(C#N)cn4)ccc2F)N=C(N)S3)CCO1 [Example 317, 6-((Z)-2-(3-((1S,5S,6S)-3-amino-1-((R)-2-isopropylmorpholine-4-carbonyl)-5-methyl-2-thia-4-azabicyclo[4.1.0]hept-3-en-5-yl)-4-fluorophenyl)-1-fluorovinyl)nicotinonitrile] | 0.0018 | 0.007 | 115 | 0.007 | – |
| CNC(=O)[C@]12C[C@H]1[C@@](C)(c1cc(/C=C(\F)c3ncc(C#N)cc3C)ccc1F)N=C(N)S2 [Example 225, (1S,5S,6S)-3-amino-5-(5-((Z)-2-(5-cyano-3-methylpyridin-2-yl)-2-fluorovinyl)-2-fluorophenyl)-N,5-dimethyl-2-thia-4-azabicyclo[4.1.0]hept-3-ene-1-carboxamide] | 0.027 | – | 198 | 0.621 | 0.033 |
| C#CCOc1cnc(/C(F)=C/c2cnc(F)c([C@@]3(C)N=C(N)S[C@@]4(C(=O)N(C)C)C[C@H]43)c2)cn1 [Example 287, (1S,5S,6S)-3-amino-5-(2-fluoro-5-((Z)-2-fluoro-2-(5-(prop-2-yn-1-yloxy)pyrazin-2-yl)vinyl)pyridin-3-yl)-N,N,5-trimethyl-2-thia-4-azabicyclo[4.1.0]hept-3-ene-1-carboxamide] | 0.0019 | 0.0022 | 206 | 0.04 | – |
| C[C@]1(c2cc(/C=C(\F)c3ccc(C#N)cn3)ccc2F)N=C(N)S[C@@]2(C(=O)N3CCC(F)(F)CC3)C[C@H]21 [Example 325, 6-((Z)-2-(3-((1S,5S,6S)-3-amino-1-(4,4-difluoropiperidine-1-carbonyl)-5-methyl-2-thia-4-azabicyclo[4.1.0]hept-3-en-5-yl)-4-fluorophenyl)-1-fluorovinyl)nicotinonitrile] | 0.0019 | 0.0042 | 446 | 0.089 | – |
| C[C@]1(c2cc(/C=C(\F)c3ccc(C#N)cn3)cnc2F)N=C(N)S[C@@]2(C(=O)N3CC[C@@H](F)C3)C[C@H]21 [Example 181, 6-((Z)-2-(5-((1S,5S,6S)-3-amino-1-((R)-3-fluoropyrrolidine-1-carbonyl)-5-methyl-2-thia-4-azabicyclo[4.1.0]hept-3-en-5-yl)-6-fluoropyridin-3-yl)-1-fluorovinyl)nicotinonitrile] | 0.0021 | 0.0073 | 653 | 0.033 | – |
| Cc1cnc([C@]23C[C@H]2[C@@](C)(c2cc(/C=C(\F)c4ccc(C#N)cn4)ccc2F)N=C(N)S3)o1 [Example 344, 6-((Z)-2-(3-((1S,5S,6S)-3-amino-5-methyl-1-(5-methyloxazol-2-yl)-2-thia-4-azabicyclo[4.1.0]hept-3-en-5-yl)-4-fluorophenyl)-1-fluorovinyl)nicotinonitrile] | 0.0033 | 0.0285 | 227 | 0.18 | – |
| CC[C@H]1COCCN1C(=O)[C@]12C[C@H]1[C@@](C)(c1cc(/C=C(\F)c3ccc(C#N)cn3)ccc1F)N=C(N)S2 [Example 334, 6-((Z)-2-(3-((1S,5S,6S)-3-amino-1-((S)-3-ethylmorpholine-4-carbonyl)-5-methyl-2-thia-4-azabicyclo[4.1.0]hept-3-en-5-yl)-4-fluorophenyl)-1-fluorovinyl)nicotinonitrile] | 0.0064 | 0.0041 | 19 | 0.146 | – |
| COC[C@]12C[C@H]1[C@@](CF)(c1cc(/C=C(/F)c3ccc(Cl)cn3)ccc1F)N=C(N)S2 [Example 101, (1S,5S,6S)-5-(5-((E)-2-(5-chloropyridin-2-yl)-2-fluorovinyl)-2-fluorophenyl)-5-(fluoromethyl)-1-(methoxymethyl)-2-thia-4-azabicyclo[4.1.0]hept-3-en-3-amine] | 0.303 | 1.6 | 154 | 0.281 | – |
| C[C@H]1CN(C(=O)[C@]23C[C@H]2[C@@](C)(c2cc(/C=C(\F)c4ccc(C#N)cn4)ccc2F)N=C(N)S3)C[C@H](C)O1 [Example 323, 6-((Z)-2-(3-((1S,5S,6S)-3-amino-1-((2S,6S)-2,6-dimethylmorpholine-4-carbonyl)-5-methyl-2-thia-4-azabicyclo[4.1.0]hept-3-en-5-yl)-4-fluorophenyl)-1-fluorovinyl)nicotinonitrile] | 0.0031 | 0.0026 | 411 | 0.192 | – |
| C[C@H]1[C@H](O)CCN1C(=O)[C@]12C[C@H]1[C@@](C)(c1cc(/C=C(\F)c3ccc(C#N)cn3)ccc1F)N=C(N)S2 [Example 336, 6-((Z)-2-(3-((1S,5S,6S)-3-amino-1-((2S,3R)-3-hydroxy-2-methylpyrrolidine-1-carbonyl)-5-methyl-2-thia-4-azabicyclo[4.1.0]hept-3-en-5-yl)-4-fluorophenyl)-1-fluorovinyl)nicotinonitrile] | 0.0013 | 0.0005 | 151 | 0.055 | – |
| C[C@]1(c2cc(/C=C(\F)c3cnc(C#C[Si](C)(C)C)cn3)ccc2F)N=C(N)S[C@@]2(C(=O)N3CCOCC3)C[C@H]21 [Example 349, ((1S,5S,6S)-3-amino-5-(2-fluoro-5-((Z)-2-fluoro-2-(5-((trimethylsilyl)ethynyl)pyrazin-2-yl)vinyl)phenyl)-5-methyl-2-thia-4-azabicyclo[4.1.0]hept-3-en-1-yl)(morpholino)methanone] | 0.003 | 0.034 | 78.1 | 0.253 | – |
| C[C@]1(c2cc(/C=C(\F)c3cnc(N4CCOC4=O)cn3)ccc2F)N=C(N)S[C@@]2(C(=O)N3CCOCC3)C[C@H]21 [Example 346, 3-(5-((Z)-2-(3-((1S,5S,6S)-3-amino-5-methyl-1-(morpholine-4-carbonyl)-2-thia-4-azabicyclo[4.1.0]hept-3-en-5-yl)-4-fluorophenyl)-1-fluorovinyl)pyrazin-2-yl)oxazolidin-2-one] | 1.4 | 2.19 | 25.5 | 0.942 | – |
| CNC(=O)[C@]12C[C@H]1[C@@](C)(c1cc(/C=C(\F)c3cnc(C#CCF)cn3)ccc1F)N=C(N)S2 [Example 363, (1S,5S,6S)-3-amino-5-(2-fluoro-5-((Z)-2-fluoro-2-(5-(3-fluoroprop-1-yn-1-yl)pyrazin-2-yl)vinyl)phenyl)-N,5-dimethyl-2-thia-4-azabicyclo[4.1.0]hept-3-ene-1-carboxamide] | 0.01 | 1.34 | > 400 | 0.152 | – |
| C#CCOc1cnc(/C(F)=C/c2ccc(F)c([C@@]3(C)N=C(N)S[C@]4(CO)[C@H]3C4(F)F)c2)cn1 [Example 253, ((1S,5S,6R)-3-amino-7,7-difluoro-5-(2-fluoro-5-((Z)-2-fluoro-2-(5-(prop-2-yn-1-yloxy)pyrazin-2-yl)vinyl)phenyl)-5-methyl-2-thia-4-azabicyclo[4.1.0]hept-3-en-1-yl)methanol] | 0.0054 | 0.0636 | 147 | 0.385 | – |
